Measurements from ChEMBL document CHEMBL1136657, “Novel ether derivatives of mannopeptimycin glycopeptide antibiotic” (2003).
Values after ≈ are worked out from the molar mass of the structure shown.

Key:
Assay type in all cases: functional
Enterococcus faecium [1] = assay: Minimum inhibitory concentration against Enterococcus faecium was determined; Range is 8-16 ug/mL
Staphylococcus aureus [2] = assay: Minimum inhibitory concentration against Staphylococcus aureus (MRCNS) was determined
Staphylococcus aureus [3] = assay: Minimum inhibitory concentration against Staphylococcus aureus (MRSA) was determined; Range is 4-8 ug/mL
Staphylococcus aureus [4] = assay: Minimum inhibitory concentration against Staphylococcus aureus (MSCNS) was determined; Range is 1-8 ug/mL
Candida albicans = assay: Minimum inhibitory concentration against Candida albicans was determined
Streptococcus [5] = assay: Minimum inhibitory concentration against Streptococcus was determined; Range is <=0.12-2 ug/mL
Staphylococcus aureus [6] = assay: Minimum inhibitory concentration against Staphylococcus aureus (MSSA) was determined; Range is 4-8 ug/mL
[7] = Minimum inhibitory concentration against Gram(-) sp. was determined
Enterococcus faecalis [8] = assay: Minimum inhibitory concentration against Enterococcus faecalis was determined; Range is 8-16 ug/mL
Staphylococcus aureus [9] = assay: Minimum inhibitory concentration against Staphylococcus aureus (MRSA) was determined; Range is […] ug/mL
Staphylococcus aureus [10] = assay: Minimum inhibitory concentration against Staphylococcus aureus (MSCNS) was determined; Range is <=0.12-0.5 ug/mL
Staphylococcus aureus [11] = assay: Minimum inhibitory concentration against Staphylococcus aureus smith
Streptococcus [12] = assay: Minimum inhibitory concentration against Streptococcus was determined
Staphylococcus aureus [13] = assay: Minimum inhibitory concentration against Staphylococcus aureus (MSSA) was determined; Range is 1-4 ug/mL
[14] = Minimum inhibitory concentration against Gram(-) sp. was determined; Range is 32->128 ug/mL
Mus musculus = assay: In vivo activity against Staphylococcus aureus smith was determined after iv administration in mice; conditions: Mus musculus, iv; read-out: ED50
Enterococcus faecium [15] = assay: Minimum inhibitory concentration against Enterococcus faecium was determined; Range is 2-4 ug/mL
Enterococcus faecalis [16] = assay: Minimum inhibitory concentration against Enterococcus faecalis was determined; Range is 2-4 ug/mL
Staphylococcus aureus [17] = assay: Minimum inhibitory concentration against Staphylococcus aureus (MRCNS) was determined; Range is 0.25-1 ug/mL

Row | MIC (Enterococcus faecium [1]) [µg/mL] | MIC (Staphylococcus aureus [2]) [µg/mL] | MIC (Staphylococcus aureus [3]) [µg/mL] | MIC (Staphylococcus aureus [4]) [µg/mL] | MIC (Candida albicans) [µg/mL] | MIC (Streptococcus [5]) [µg/mL] | MIC (Staphylococcus aureus [6]) [µg/mL] | MIC [7] [µg/mL] | MIC (Enterococcus faecalis [8]) [µg/mL] | MIC (Staphylococcus aureus [9]) [µg/mL] | MIC (Staphylococcus aureus [10]) [µg/mL] | MIC (Staphylococcus aureus [11]) [µg/mL] | MIC (Streptococcus [12]) [µg/mL] | MIC (Staphylococcus aureus [13]) [µg/mL] | MIC [14] [µg/mL] | MIC (Enterococcus faecium [15]) [µg/mL] | MIC (Enterococcus faecalis [16]) [µg/mL] | MIC (Staphylococcus aureus [17]) [µg/mL] | SMILES | ED50 (Mus musculus) [mg/kg]
1 | 8 (≈ 5.41 µM) | 4 (≈ 2.71 µM) | 4 (≈ 2.71 µM) | 1 (≈ 0.677 µM) | > 128 | ≤ 0.12 | 4 (≈ 2.71 µM) | > 128 | 8 (≈ 5.41 µM) |  |  |  |  |  |  |  |  |  | C[C@@H](c1ccccc1)[C@@H]1NC(=O)CNC(=O)[C@H](CO)NC(=O)[C@@H]([C@@H](O)[C@@H]2CN=C(N)N2[C@H]2O[C@H](O)[C@@H](O)[C@H](O)[C@@H]2O)NC(=O)[C@H]([C@@H](O)[C@@H]2CN=C(N)N2)NC(=O)[C@@H](Cc2ccc(O[C@H]3O[C@H](CO)[C@@H](O[C@H]4O[C@H](CO)[C@@H](O)[C@H](OCc5ccc(OCc6ccccc6)cc5)[C@@H]4O)[C@H](O)[C@@H]3O)cc2)NC1=O | 
2 |  |  |  |  | > 128 |  |  |  |  | 1 (≈ 0.677 µM) | ≤ 0.12 | 1 (≈ 0.677 µM) | < 0.12 | 1 (≈ 0.677 µM) | 32 (≈ 21.7 µM) | 2 (≈ 1.35 µM) | 2 (≈ 1.35 µM) | 0.25 (≈ 0.169 µM) | C[C@@H](c1ccccc1)[C@@H]1NC(=O)CNC(=O)[C@H](CO)NC(=O)[C@@H]([C@@H](O)[C@@H]2CN=C(N)N2[C@H]2O[C@H](O)[C@@H](O)[C@H](O)[C@@H]2O)NC(=O)[C@H]([C@@H](O)[C@@H]2CN=C(N)N2)NC(=O)[C@@H](Cc2ccc(O[C@H]3O[C@H](CO)[C@@H](O[C@H]4O[C@H](CO)[C@@H](OCc5ccc(OCc6ccccc6)cc5)[C@H](O)[C@@H]4O)[C@H](O)[C@@H]3O)cc2)NC1=O | 0.06
